Reference: patent US4801607A, “Antiviral furanoditerpenoids” (Harbor Branch Oceanographic Institution, Inc., priority 1987, dated 1989)
In brackets after ≈: the same amount, converted by molar mass. Where two headings read alike, the source gives them in different places. Marks after values point to notes of the source that are not given here.

What was measured:
[1] = test system: P388 mouse leukemia cells; test: P388 mouse leukemia cell assay; format: cell-based; conditions: 48 hours
Protocol: P388 mouse leukemia cells are grown in Dulbecco's minimum essential medium with Earle's salts (MEM) with 10% horse serum, 4 mM glutamine, and 20 ug/ml gentamicin (Biologos, Inc.). Cells are incubated in 10% CO2 and subcultured 2 times per week. 1. Add compound to each well of a 24-well plate or tube and allow solvent to evaporate to dryness. 2. Add 2 ml (1.2×10^5) cells to each well or tube and mix. 3. Incubate in 10% CO2 at 37° for 48 hours. 4. Read plates with an inverted microscope, scoring activity from 1+ to 4+ as follows: ND (not detectable),>90%; 1+, 75-90%; 2+, 50-74%; 3+, 25-49%; 4+, <25% of control growth. Cell counts are performed on each tube and results are reported as percent of control. Positive control--Vinblastine or Vincristine in aqueous solution.

CV-1 cells = test: Cytotoxicity in the antiviral disc assay
HSV-1 = test: Antiviral disc assay, HSV-1 in CV-1 cells; format: cell-based, herpes simplex type 1
VSV = format: cell-based, vesicular stomatitis virus
[2] = test system: HCT-8 human colon tumor cells; test: Human tumor cell line assay, HCT-8 colon; format: cell-based; conditions: 120 hours, read-out: Antitumor activity, HCT-8
Protocol: (§1) HCT-8 human colon tumor cells are grown in RPM1 1640 medium (GIBCO). A-549 human lung carcinoma cells are cultured in Dulbecco medium (Biologos, Inc.). MCF-7, MDA-MB 231 and T47D human breast carcinoma cells are grown in Eagles MEM medium. All media are supplemented with 10% fetal bovine serum and contain 50 μg/ml gentamicin. All human tumor cell lines are incubated in 5% CO2 at 37° and subcultured once a week. The seeding levels are 350,000 MCF-7 cells, 60,000 HCT-8 cells and 300,000 A-549 cells per T25 flask.
(§2) 2. Incubate in 5% CO2 for 48 hours.
(§3) 3. Add compound (50 μg)to each well and incubate for an additional 120 hours.
(§4) 4. Discard medium and stain with methylene blue (HCT-8) or crystal violet (A549 and MCF-7) for 30 minutes.
(§5) 5. Compare cell density of drug-treated well with that of the control (no drug added) as follows: ND (not detectable), >90%; 1+, 75-90%; 2+, 50-74%; 3+, 25-49%, 4+, <25% of control growth.

human tumor cell lines = test: Human tumor cell line assay (cell lines together); format: cell-based; conditions: 120 h, in concentrations of at least 10 μg/ml, read-out: concentrations with good activity against human tumor cell lines
Protocol: as §1, §2, §3, §4, §5

[3] = test system: A-549 human lung carcinoma cells; test: Human tumor cell line assay, A-549 lung; format: cell-based; conditions: 120 hours, read-out: Antitumor activity, A-549
Protocol: as §1, §2, §3, §4, §5

[4] = test system: MDA-MB 231 human breast carcinoma cells; test: Human tumor cell line assay, MDAMB mammary; format: cell-based; conditions: 120 hours, read-out: Antitumor activity, MDAMB
Protocol: as §1, §2, §3, §4, §5

C[C@]12C[C@@H](O)C(=O)[C@](C)(CO)[C@@H]1CC[C@@]1(C)c3cocc3CC[C@H]21 [Composition 1, isospongiadiol]
IC50 [1]: 5 µg/mL (≈ 15 µM)
Cytotoxicity (CV-1 cells; 2 μg/disk): 0*
Cytotoxicity (CV-1 cells; 20 μg/disk): 0*
HSV-1 Activity (HSV-1; 2 μg/disk): ++
HSV-1 Activity (HSV-1; 20 μg/disk): +++
VSV Activity (VSV; 20 μg/disk): +
activity at 1 µg/mL ([2]; dose 1 μg/ml): > 90%
activity at 10 µg/mL ([2]; dose 10 μg/ml): 25 to 49%
activity at 50 µg/mL ([2]; dose 50 μg/ml): < 25%
minimal effective concentration (human tumor cell lines): ≥ 10 µg/mL
activity at 1 µg/mL ([3]; A549, dose 1 μg/ml): > 90%
activity at 10 µg/mL ([3]; A549, dose 10 μg/ml): 25 to 49%
activity at 50 µg/mL ([3]; A549, dose 50 μg/ml): < 25%
activity at 1 µg/mL ([4]; dose 1 μg/ml): > 90%
activity at 10 µg/mL ([4]; dose 10 μg/ml): 25 to 49%
activity at 50 µg/mL ([4]; dose 50 μg/ml): < 25%

C[C@]12CC(=O)[C@@H](O)[C@](C)(CO)[C@@H]1CC[C@@]1(C)c3cocc3CC[C@H]21 [Composition 2, spongiadiol]
IC50 [1]: 0.5 µg/mL (≈ 1.5 µM)
HSV-1 Activity (HSV-1; 0.5 μg/disk): +++
VSV Activity (VSV; 0.5 μg/disk): ++
VSV Activity (VSV; 1 μg/disk): +++

C[C@]12CC(=O)[C@H](O)[C@](C)(CO)[C@@H]1CC[C@@]1(C)c3cocc3CC[C@H]21 [Composition 3, epispongiadiol]
IC50 [1]: 8 µg/mL (≈ 24.1 µM)
HSV-1 Activity (HSV-1; 6.25 μg/disk): +
HSV-1 Activity (HSV-1; 12.5 μg/disk): ++
VSV Activity (VSV; 20 μg/disk): +
